Test results taken from patent US4269831A, “Topical dermatological method of use of an androstenopyrazole” (priority 1979, dated 1981).

Tests used:
Type in all cases: in vivo
[1] = test system: hair growth on backs of male adrenalectomized Sprague-Dawley rats; experiment: Reduction in hair growth in male adrenalectomized rats, topical (Table VII); conditions: 0.1% solution topical
Description: Hair was clipped from the backs of male Sprague-Dawley rats, having a mean body weight of 300 g., three weeks after adrenalectomy. The clipped area (4 cm.×4 cm.) was medicated with approximately 500 microliters of 0.1% solution of the compound of Formula I, or hydrocortisone or 500 microliters of ethanol alone for a two-week pretreatment period. The clipped area was then depilated and the medication with either solution or ethanol alone was continued for 4 weeks. The density of hair growth was scored visually at weekly intervals and at termination of the experiment on a scale of 0 to 4 (0, no hair growth; 4, complete hair regrowth). Skinfold thickness was also measured using a micrometer at the end of the experiment, which was conducted blind.

[2] = test system: hair on the back of mature male Syrian golden hamsters; experiment: Reduction of hair regrowth on clipped back of hamsters; conditions: 200 microliters on 9 cm2, 30 daily applications, vehicle 323±49 mg
Description: The hair on the back of mature male Syrian golden hamsters having a mean initial body weight of 107 g. (7 hamsters per group) was removed with electric clippers. The vehicle (200 microliters of ethanol) or the test solution (0.02% or 0.1% of the compound of Formula I in ethanol) was pipetted slowly to cover the entire clipped area (9 cm.^2). After 30 daily applications, the hair was clipped from the same area and the hair clippings were collected and weighed in order to measure hair regrowth. The hair weights averaged 119±15 and 109±17 mg. for hamsters treated with 0.02% and 0.1% of the compound of Formula I, respectively, compared to 323±49 mg. for vehicle-treated hamsters.

[3] = test system: supracaudal glands of mature male guinea pigs; experiment: Topical study on supracaudal glands of guinea pigs; conditions: 21 days
Protocol: The supracaudal glands of mature male guinea pigs having a mean initial body weight of 431 g. (8 guinea pigs per group) were medicated topically with a solution of the compound of Formula I (400 micrograms) in ethanol (10 microliters). Guinea pigs treated with ethanol served as controls. After 21 days of treatment the guinea pigs were killed and the areas of the supracaudal glands (pi×long radius×short radius) were measured in situ with calipers. The weights of seminal vesicles, adrenals and thymus glands were also measured.

[4] = test system: adrenalectomized Sprague-Dawley rats; experiment: Systemic glucocorticoid activity in the adrenalectomized rat, oral; parameters: Liver glycogen: unit not given here; conditions: five consecutive days; for Liver glycogen: control 1.82±0.03; for Thymus weights: control 638±50
Protocol: A solution of the compound of Formula I in ethanolcottonseed oil (1:9, v/v) was administered orally to adrenalectomized Sprague-Dawley rats having a mean initial body weight of 188 g. (10 rats per group) for five consecutive days. Adrenalectomized rats receiving vehicle alone served as controls. Seven hours after the final medication the rats were killed and the thymus glands were excised and weighed. A portion of the liver was excised, frozen and digested in hot aqueous potassium hydroxide (30%). Liver glycogen was then determined. In this test the compound of Formula I caused thymolysis and liver glycogen deposition. The thymus weights at doses of 10 and 30 mg./kg. were 359±31 and 167±20 mg., respectively,in the medicated rats compared with 638±50 mg. in the control rats.

[5] = test system: castrated immature male Syrian golden hamsters; experiment: Systemic antiandrogenic and glucocorticoid activity, subcutaneous, with testosterone propionate (Table IV); conditions: mean, n=8
Protocol: A solution of the compound of Formula I in cottonseed oil was administered subcutaneously at 1 ml./kg. to castrated immature male Syrian golden hamsters having a mean initial body weight of 79 g. for 14 consecutive days concurrently with testosterone propionate. On the day following the last medication the hamsters were killed, the flank organ parameters were determined and the weights of seminal vesicles, adrenals and thymus glands were obtained.

[6] = test system: flank organ of mature male Syrian golden hamsters; experiment: Topical antiandrogenic activity in mature male hamsters, both flank organs medicated (Table I); conditions: mean, n=8
Description: Each flank organ of mature male Syrian golden hamsters having a mean initial body weight of 105 g. was medicated topically with the compound of Formula I dissolved in ethanol (5 microliters) for twenty-one days. Flank organ hair was clipped three times per week to facilitate application. On the day following the last medication the hamsters were killed with an overdose of sodium pentobarbital. The flank organ parameters and the weights of seminal vesicles, adrenals and thymus glands were determined. Flank organ diameter was measured parallel to the breadth of the hamster with vernier calipers. Wet weights were obtained on flank organs excised around the periphery of the pigmented area. The topical activity of the compound of Formula I was also compared with that of 17β-hydroxy-17α-propylandrost-4-en-3-one, an antiandrogen, and hydrocortisone. In this experiment the right flank organ was treated with the test compound while vehicle-treated left flank organ served as control. […] In addition, the individual characteristics of the flank organ, elevation (thickness relative to adjacent skin), area, hair pigment, skin pigment and hair growth were all scored separately on a scale of 0 to 4.

[7] = after depilation, median score, scale 0 to 4, n=12
[8] = 2.5 mg/kg/day sc for 14 days with testosterone propionate 0.4 mg/kg/day
[9] = 5 mg/kg/day sc for 14 days with testosterone propionate 0.4 mg/kg/day
[10] = 1 μg/flank organ/day topical for 21 days
[11] = 5 μg/flank organ/day topical for 21 days
[12] = 25 μg/flank organ/day topical for 21 days
[13] = 125 μg/flank organ/day topical for 21 days

CC#C[C@]1(O)CC[C@H]2[C@@H]3C[C@H](C)C4=Cc5[nH]ncc5C[C@]4(C)[C@H]3CC[C@@]21C [Compound of Formula I, 17β-Hydroxy-6α-methyl-17α-propynyl-4-androsteno[3,2-c]-pyrazole]
Hair Growth Score, Treatment week 1 [1, 7]: 0 | Hair Growth Score, Treatment week 2 [1, 7]: 0 | Hair Growth Score, Treatment week 3 [1, 7]: .5 | Hair Growth Score, Treatment week 4 [1, 7]: 1 | Skinfold Thickness, Treatment week 4 ([1]; mean, n=12, vehicle 2.51): 1.82 mm | Hair Growth Score, Pretreatment week 1 ([1]; median score, scale 0 to 4 (0 no hair growth, 4 complete regrowth), n=12): 1 | Hair Growth Score, Pretreatment week 2 ([1]; median score, scale 0 to 4, n=12): 2.5 | Skin thickness compared with hydrocortisone-treated rats ([1]; p<0.02): thinner | Hair weights (hair regrowth on clipped back area) ([2]; 0.02% in ethanol): 119 ± 15 mg | Hair weights (hair regrowth on clipped back area) ([2]; 0.1% in ethanol): 109 ± 17 mg | Average area of the supracaudal glands ([3]; 400 micrograms in 10 microliters ethanol topical, control 104±7, p<0.01): 72±6 sq. mm. | Changes in weights of seminal vesicles, adrenals or thymus glands ([3]; 400 micrograms topical, versus control group): No changes | Liver glycogen ([4]; 10 mg./kg. oral): 5.7±1.1 | Thymus weights ([4]; 10 mg./kg. oral): 359 ± 31 mg | Liver glycogen ([4]; 30 mg./kg. oral): 10.9±1.2 | Thymus weights ([4]; 30 mg./kg. oral): 167 ± 20 mg | Final Body Weight [5, 8]: 99 | Flank Organ Diameter [5, 8]: 4.0 mm | Flank Organ Wet Weight [5, 8]: 19.5 mg | Organ Weights: Adrenals [5, 8]: 12.7 mg | Organ Weights: Seminal Vesicles [5, 8]: 135 mg | Organ Weights: Thymus [5, 8]: 28 mg | Final Body Weight [5, 9]: 93 | Flank Organ Diameter [5, 9]: 3.6 mm | Flank Organ Wet Weight [5, 9]: 15.0 mg | Organ Weights: Adrenals [5, 9]: 12.3 mg | Organ Weights: Seminal Vesicles [5, 9]: 107 mg | Organ Weights: Thymus [5, 9]: 14 mg | Flank Organ Diameter [6, 10]: 5.7 mm | Flank Organ Wet Weight [6, 10]: 46.5 mg | Organ Weights: Adrenal [6, 10]: 26.7 mg | Organ Weights: Seminal Vesicles [6, 10]: 288.3 mg | Organ Weights: Thymus [6, 10]: 57.1 mg | Flank Organ Diameter [6, 11]: 4.8 mm | Flank Organ Wet Weight [6, 11]: 36.4 mg | Organ Weights: Adrenal [6, 11]: 25.5 mg | Organ Weights: Seminal Vesicles [6, 11]: 277.6 mg | Organ Weights: Thymus [6, 11]: 53.2 mg | Flank Organ Diameter [6, 12]: 4.7 mm | Flank Organ Wet Weight [6, 12]: 33.4 mg | Organ Weights: Adrenal [6, 12]: 25.5 mg | Organ Weights: Seminal Vesicles [6, 12]: 270.3 mg | Organ Weights: Thymus [6, 12]: 53.7 mg | Flank Organ Diameter [6, 13]: 4.8 mm | Flank Organ Wet Weight [6, 13]: 30.7 mg | Organ Weights: Adrenal [6, 13]: 21.0 mg | Organ Weights: Seminal Vesicles [6, 13]: 267.3 mg | Organ Weights: Thymus [6, 13]: 52.8 mg
